In one test the target is KAT-6A (Homo sapiens (Human), UniProt Q92794). The test can be described thus: KAT-6A biochemical inhibition assay (SAMDI mass spectrometry). In a few lines:
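Enzyme (12.5 nM final) pre-incubated with serially diluted compounds (2% DMSO final) in 50 mM Tris pH 8.0 with Tween20, gelatin and 1 mM DTT. Reaction started with 1 μM peptide substrate and 1 μM acetyl-CoA, run 90 min at 25 °C, quenched with 0.5% formic acid, read by SAMDI-TOF mass spectrometry; IC50 derived.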

Another test concerns the target KAT-7 (Homo sapiens (Human), UniProt O95251). The experiment in a line: KAT-7 biochemical inhibition assay (SAMDI mass spectrometry). The essentials:
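KAT-7 (6 nM) was pre-incubated with serially diluted compound (2% DMSO) in Tris pH 8.0 with DTT. Reaction with 1 μM peptide and 2 μM acetyl-CoA ran 120 min at 25 °C and was stopped with 0.5% formic acid. Acetylation was read by SAMDI-TOF mass spectrometry to give IC50.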

The next test deals with KAT-8 (Homo sapiens (Human), UniProt Q9H7Z6). The test can be described thus: KAT-8 biochemical inhibition assay (SAMDI mass spectrometry). In a few lines:
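Compounds in 2% DMSO pre-incubated with 12.5 nM enzyme in 50 mM Tris pH 8.0 with Tween20, gelatin and 1 mM DTT. Then 1 μM peptide and 5 μM acetyl-CoA were added, 90 min at 25 °C; formic acid stop and SAMDI-TOF mass spectrometry for IC50.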

The next test deals with KAT-5 (Homo sapiens (Human), UniProt Q92993). The test can be described thus: KAT-5 biochemical inhibition assay (SAMDI mass spectrometry). In a few lines: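 KAT-5 at 9 nM final was preincubated with serially diluted compound (2% DMSO) in 50 mM Tris pH 8.0 with 1 mM DTT. Reaction ran with 1 μM peptide substrate and 0.5 μM acetyl-CoA for 90 min at 25° C, was quenched with 0.5% formic acid, and was read by SAMDI-TOF mass spectrometry.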

Where only a bound is given, the exact number is not on record here.

Sequence of KAT-5 (Q92993 other isoform, or with tags, fused parts or gaps): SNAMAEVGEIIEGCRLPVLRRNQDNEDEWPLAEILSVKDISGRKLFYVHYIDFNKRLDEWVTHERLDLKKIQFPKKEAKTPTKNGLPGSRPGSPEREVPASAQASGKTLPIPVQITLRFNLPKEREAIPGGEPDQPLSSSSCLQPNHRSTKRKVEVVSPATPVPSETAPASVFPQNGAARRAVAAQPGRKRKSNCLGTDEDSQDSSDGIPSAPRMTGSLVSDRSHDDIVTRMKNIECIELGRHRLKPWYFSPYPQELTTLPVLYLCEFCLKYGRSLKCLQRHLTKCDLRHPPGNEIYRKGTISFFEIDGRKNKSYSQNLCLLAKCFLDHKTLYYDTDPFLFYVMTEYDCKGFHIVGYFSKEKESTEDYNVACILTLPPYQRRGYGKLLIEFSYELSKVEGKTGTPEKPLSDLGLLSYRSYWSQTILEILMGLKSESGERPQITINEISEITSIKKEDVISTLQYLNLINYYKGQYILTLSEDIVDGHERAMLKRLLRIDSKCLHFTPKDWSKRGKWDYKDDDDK
Sequence of KAT-8 (Q9H7Z6 other isoform, or with tags, fused parts or gaps): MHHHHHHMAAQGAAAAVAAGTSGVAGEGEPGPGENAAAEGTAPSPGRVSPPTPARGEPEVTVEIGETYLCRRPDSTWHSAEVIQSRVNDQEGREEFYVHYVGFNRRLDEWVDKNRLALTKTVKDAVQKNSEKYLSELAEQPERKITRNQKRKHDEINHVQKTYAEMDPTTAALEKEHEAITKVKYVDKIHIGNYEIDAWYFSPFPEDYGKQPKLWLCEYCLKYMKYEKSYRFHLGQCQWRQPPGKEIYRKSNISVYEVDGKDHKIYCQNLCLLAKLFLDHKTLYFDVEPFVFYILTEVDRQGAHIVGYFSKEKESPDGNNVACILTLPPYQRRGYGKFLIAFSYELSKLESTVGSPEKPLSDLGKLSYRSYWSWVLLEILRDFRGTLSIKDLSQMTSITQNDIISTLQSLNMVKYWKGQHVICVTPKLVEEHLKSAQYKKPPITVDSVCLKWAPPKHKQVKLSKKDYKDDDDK
Sequence of KAT-7 (O95251 other isoform, or with tags, fused parts or gaps): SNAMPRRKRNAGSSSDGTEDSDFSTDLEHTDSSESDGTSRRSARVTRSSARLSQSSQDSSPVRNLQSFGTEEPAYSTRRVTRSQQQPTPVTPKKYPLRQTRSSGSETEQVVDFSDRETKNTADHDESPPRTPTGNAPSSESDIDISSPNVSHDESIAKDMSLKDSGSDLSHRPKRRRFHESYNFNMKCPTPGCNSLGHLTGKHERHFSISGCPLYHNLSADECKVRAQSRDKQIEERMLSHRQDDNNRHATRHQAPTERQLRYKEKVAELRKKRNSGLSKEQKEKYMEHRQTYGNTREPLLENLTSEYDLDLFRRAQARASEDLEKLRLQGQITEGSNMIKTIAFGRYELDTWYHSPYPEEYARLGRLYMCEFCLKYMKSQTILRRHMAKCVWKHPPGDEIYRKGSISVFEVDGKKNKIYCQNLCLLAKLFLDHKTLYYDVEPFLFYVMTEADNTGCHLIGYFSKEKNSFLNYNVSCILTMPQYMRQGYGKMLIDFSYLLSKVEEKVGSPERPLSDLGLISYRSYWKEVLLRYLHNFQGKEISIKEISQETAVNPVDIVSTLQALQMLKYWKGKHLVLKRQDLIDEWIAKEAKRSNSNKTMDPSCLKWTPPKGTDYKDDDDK
Sequence of KAT-6A (Q92794 other isoform, or with tags, fused parts or gaps): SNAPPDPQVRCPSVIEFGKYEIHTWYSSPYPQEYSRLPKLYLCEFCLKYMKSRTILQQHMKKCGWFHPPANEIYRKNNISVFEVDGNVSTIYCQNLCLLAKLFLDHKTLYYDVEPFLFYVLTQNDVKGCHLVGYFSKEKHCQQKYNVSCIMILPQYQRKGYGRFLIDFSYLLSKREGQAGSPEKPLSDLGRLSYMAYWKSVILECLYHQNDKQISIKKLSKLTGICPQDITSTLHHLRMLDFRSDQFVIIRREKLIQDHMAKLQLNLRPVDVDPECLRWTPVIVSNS

`Cn1cnc(-c2cc(Cl)c(F)c(C(=O)NNS(=O)(=O)CC3CN(C(N)=O)C3)c2)c1` [Compound I-208]: the IC50 (usually the concentration at which inhibition is half-maximal) on KAT-6A is 10 to 50 µM; on KAT-7 it was less than 10 µM; against KAT-8, 10 to 50 µM; against KAT-5, 10 to 50 µM.
Regarding `CNC(=O)N1CC[C@@H](CS(=O)(=O)NNC(=O)c2cc(-c3cn(C)cn3)cc(Cl)c2F)C1` [Compound I-209], the IC50 was 10 to 50 µM against KAT-6A, less than 10 µM against KAT-7, 10 to 50 µM against KAT-8 and less than 10 µM at KAT-5.
Take `CNC(=O)N1CC[C@H](CS(=O)(=O)NNC(=O)c2cc(-c3cn(C)cn3)cc(Cl)c2F)C1` [Compound I-210]: the 50% inhibitory concentration (IC50) against KAT-6A was 10 to 50 µM; against KAT-7 it was less than 10 µM; against KAT-8, 10 to 50 µM; against KAT-5 it was less than 10 µM.
As for `Cn1cnc(-c2cc(Cl)c(F)c(C(=O)NNS(=O)(=O)C[C@H]3CC[C@H](NS(C)(=O)=O)CC3)c2)c1` [Compound I-211], the half-inhibitory concentration (IC50) was less than 10 µM on KAT-6A, less than 10 µM on KAT-7, 10 to 50 µM against KAT-8 and less than 10 µM on KAT-5.
For the compound `COCCn1cc(S(=O)(=O)NNC(=O)c2cc(-c3cn(C)cn3)cc(Cl)c2F)cn1` [Compound I-212], the IC50 at KAT-6A was 10 to 50 µM; on KAT-7 it was less than 10 µM; against KAT-8 it was 10 to 50 µM; against KAT-5 it was 10 to 50 µM.
As for `COc1ccc(CNC(=O)N[C@H]2C[C@@H](CS(=O)(=O)NNC(=O)c3cc(-c4cn(C)cn4)cc(Cl)c3F)C2)cc1` [Compound I-213], the 50% inhibitory concentration (IC50) was less than 10 µM on KAT-6A, less than 10 µM at KAT-7, 10 to 50 µM on KAT-8 and less than 10 µM against KAT-5.
Turning to `COc1ccc(CNC(=O)N2CCCC(CS(=O)(=O)NNC(=O)c3cc(-c4cn(C)cn4)cc(Cl)c3F)C2)cc1` (stereo not drawn) [Compound I-214], the IC50 on KAT-6A was less than 10 µM; on KAT-7, less than 10 µM; against KAT-8, 10 to 50 µM; on KAT-5 it was less than 10 µM.
As to `Cn1cnc(-c2cc(Cl)c(F)c(C(=O)NNS(=O)(=O)CC3CCCN(C(N)=O)C3)c2)c1` (stereo not drawn) [Compound I-215], the IC50 at KAT-6A is less than 10 µM; at KAT-7, less than 10 µM; at KAT-8 it was 10 to 50 µM; against KAT-5 it was less than 10 µM.
Regarding `COCCN(Cc1ccc(OC)cc1)C(=O)N1CCCC(CS(=O)(=O)NNC(=O)c2cc(-c3cn(C)cn3)cc(Cl)c2F)C1` (stereo not drawn) [Compound I-216], the IC50 on KAT-6A is 10 to 50 µM; against KAT-7, less than 10 µM; at KAT-8, 10 to 50 µM; against KAT-5, less than 10 µM.
As for `COCCNC(=O)N1CCCC(CS(=O)(=O)NNC(=O)c2cc(-c3cn(C)cn3)cc(Cl)c2F)C1` (stereo not drawn) [Compound I-217], the IC50 was less than 10 µM against KAT-6A, less than 10 µM against KAT-7, 10 to 50 µM on KAT-8 and less than 10 µM against KAT-5.
On to `Cn1cnc(-c2cc(Cl)c(F)c(C(=O)NNS(=O)(=O)CC3CCCC(NC(=O)C4CCC4)C3)c2)c1` (stereo not drawn) [Compound I-218], for which the IC50 against KAT-6A is less than 10 µM; against KAT-7, less than 10 µM; against KAT-8, 10 to 50 µM; against KAT-5 it was less than 10 µM.
For `O=C(NNS(=O)(=O)CC1CCCCC1)c1cc(-c2cn(Cc3ncco3)cn2)cc(Cl)c1F` [Compound I-219], the IC50 at KAT-6A is less than 10 µM; at KAT-7 it was less than 10 µM; against KAT-8, 10 to 50 µM; against KAT-5, less than 10 µM.
`Cn1cnc(-c2cc(Cl)c(F)c(C(=O)NNS(=O)(=O)CC3CN(S(C)(=O)=O)C3)c2)c1` [Compound I-220]: the IC50 on KAT-6A was 10 to 50 µM; against KAT-7, less than 10 µM; at KAT-8, 10 to 50 µM; at KAT-5, 10 to 50 µM.
On to `CCC(=O)N[C@H]1CC[C@@H](CS(=O)(=O)NNC(=O)c2cc(-c3cn(C)cn3)cc(Cl)c2F)CC1` [Compound I-221], for which the half-maximal inhibitory concentration (IC50) is less than 10 µM against KAT-6A, less than 10 µM at KAT-7, 10 to 50 µM at KAT-8 and less than 10 µM on KAT-5.
As for `CC(C)C(=O)N[C@H]1CC[C@@H](CS(=O)(=O)NNC(=O)c2cc(-c3cn(C)cn3)cc(Cl)c2F)CC1` [Compound I-222], the IC50 against KAT-6A was 10 to 50 µM; against KAT-7 it was less than 10 µM; on KAT-8, 10 to 50 µM; against KAT-5, less than 10 µM.
For `CN1CC(CS(=O)(=O)NNC(=O)c2cc(-c3cn(C)cn3)cc(Cl)c2F)CC1=O` (stereo not drawn) [Compound I-224], the IC50 against KAT-6A is 10 to 50 µM; on KAT-7, less than 10 µM; against KAT-8, 10 to 50 µM; against KAT-5, 10 to 50 µM.
Regarding `Cn1cnc(-c2cc(Cl)c(F)c(C(=O)NNS(=O)(=O)CC3CCCN(C(=O)NCCO)C3)c2)c1` (stereo not drawn) [Compound I-225], the IC50 on KAT-6A was less than 10 µM; against KAT-7 it was less than 10 µM; at KAT-8, 10 to 50 µM; against KAT-5 it was less than 10 µM.
`COCc1nc(-c2cc(Cl)c(F)c(C(=O)NNS(=O)(=O)CC3CCCCC3)c2)cn1C` [Compound I-226]: the IC50 against KAT-6A was 10 to 50 µM; on KAT-7 it was less than 10 µM; against KAT-8 it was 10 to 50 µM; at KAT-5 it was less than 10 µM.
Regarding `Cn1cnc(-c2cc(Cl)c(F)c(C(=O)NNS(=O)(=O)c3nccs3)c2)c1` [Compound I-227], the IC50 on KAT-6A was less than 10 µM; against KAT-7, less than 10 µM; on KAT-8 it was 10 to 50 µM; at KAT-5, less than 10 µM.
With `Cn1cnc(-c2cc(Cl)c(F)c(C(=O)NNS(=O)(=O)CC3CCN(C(=O)NCCO)C3)c2)c1` (stereo not drawn) [Compound I-228], the IC50 was 10 to 50 µM on KAT-6A, less than 10 µM against KAT-7, 10 to 50 µM against KAT-8 and less than 10 µM on KAT-5.
`Cn1cnc(-c2cc(Cl)c(F)c(C(=O)NNS(=O)(=O)C[C@H]3CC[C@H](NC(=O)Cc4ccccc4)CC3)c2)c1` [Compound I-229]: the IC50 against KAT-6A is less than 10 µM; on KAT-7 it was less than 10 µM; against KAT-8, 10 to 50 µM; against KAT-5, less than 10 µM.
`Cn1cnc(-c2cc(Cl)c(F)c(C(=O)NNS(=O)(=O)CC3CCCC(NC(=O)c4ccccc4)C3)c2)c1` (stereo not drawn) [Compound I-230]: the concentration for half-maximal inhibition (IC50) against KAT-6A is less than 10 µM; at KAT-7, less than 10 µM; against KAT-8, 10 to 50 µM; against KAT-5, less than 10 µM.
For `Cn1cnc(-c2cc(Cl)c(F)c(C(=O)NNS(=O)(=O)CC3CCCC(NC(=O)Cc4ccccc4)C3)c2)c1` (stereo not drawn) [Compound I-231], the IC50 against KAT-6A was less than 10 µM; against KAT-7 it was less than 10 µM; at KAT-8 it was 10 to 50 µM; at KAT-5, less than 10 µM.
Consider `Cn1cnc(-c2cc(Cl)c(F)c(C(=O)NNC3CCS(=O)(=O)C3)c2)c1` (stereo not drawn) [Compound I-232], for which the IC50 against KAT-6A, against KAT-7, against KAT-8 and at KAT-5 was 10 to 50 µM each time.
In the case of `COCCn1nc(-c2cc(Cl)c(F)c(C(=O)NNS(=O)(=O)CC3CCCCC3)c2)cc1C` [Compound I-233], the IC50 against KAT-6A is 10 to 50 µM; against KAT-7, less than 10 µM; against KAT-8, 10 to 50 µM; at KAT-5, 10 to 50 µM.
Take `Cn1cnc(-c2cc(Cl)c(F)c(C(=O)NNS(=O)(=O)CC3CCCC(NC(=O)c4ccccn4)C3)c2)c1` (stereo not drawn) [Compound I-234]: the IC50 is less than 10 µM on KAT-6A, less than 10 µM against KAT-7, 10 to 50 µM on KAT-8 and less than 10 µM against KAT-5.
`Cn1cnc(-c2cc(Cl)c(F)c(C(=O)NNS(=O)(=O)C[C@H]3C[C@@H](NC(N)=O)C3)c2)c1` [Compound I-235]: the IC50 is less than 10 µM against KAT-6A, less than 10 µM against KAT-7, 10 to 50 µM at KAT-8 and less than 10 µM against KAT-5.
With `Cn1cnc(-c2cc(Cl)c(F)c(C(=O)NNS(=O)(=O)CC3CCCC(NC(=O)c4cccnc4)C3)c2)c1` (stereo not drawn) [Compound I-236], the IC50 at KAT-6A is less than 10 µM; at KAT-7 it was less than 10 µM; against KAT-8, 10 to 50 µM; against KAT-5 it was less than 10 µM.
Consider `Cn1cnc(-c2cc(Cl)c(F)c(C(=O)NNS(=O)(=O)c3cn(C)cn3)c2)c1` [Compound I-237], for which the IC50 was less than 10 µM on KAT-6A, less than 10 µM on KAT-7, 10 to 50 µM at KAT-8 and 10 to 50 µM against KAT-5.
For the compound `Cn1cnc(-c2cc(Cl)c(F)c(C(=O)NNS(=O)(=O)CC3CCCC(NC(=O)c4ccncc4)C3)c2)c1` (stereo not drawn) [Compound I-238], the half-maximal inhibitory concentration (IC50) against KAT-6A is less than 10 µM; against KAT-7, less than 10 µM; on KAT-8, 10 to 50 µM; against KAT-5, less than 10 µM.
On to `Cn1cnc(-c2cc(Cl)c(F)c(C(=O)NNS(=O)(=O)CC3(C)CCOCC3)c2)c1` [Compound I-239], for which the half-maximal inhibitory concentration (IC50) on KAT-6A is 10 to 50 µM; against KAT-7, less than 10 µM; at KAT-8, 10 to 50 µM; against KAT-5, less than 10 µM.
Turning to `Cn1cnc(-c2cc(Cl)c(F)c(C(=O)NNS(=O)(=O)C[C@H]3CC[C@H](NC(=O)c4ccccc4)CC3)c2)c1` [Compound I-240], the IC50 is less than 10 µM against KAT-6A, less than 10 µM against KAT-7, 10 to 50 µM against KAT-8 and less than 10 µM against KAT-5.
As for `Cn1cnc(-c2cc(Cl)c(F)c(C(=O)NNS(=O)(=O)C[C@H]3CC[C@H](NC(=O)c4cccnc4)CC3)c2)c1` [Compound I-241], the IC50 is less than 10 µM at KAT-6A, less than 10 µM against KAT-7, 10 to 50 µM on KAT-8 and less than 10 µM on KAT-5.

For the origin of these results see patent publication US11685732B2, “MYST family histone acetyltransferase inhibitors” (Epizyme, Inc., priority 2017, dated 2023).
